Test results published in patent publication US6277860A, “Furopyridine antibacterials” (Pfizer Inc, priority 1999, dated 2001).
Converted amounts (≈) assume the structure as drawn. Like-named read-outs stand apart in the source and are kept apart here. One block for each compound: values may come before it.

Experiments:
[1] = tested on: Enterococcus faecalis 03A1069; assay: MIC by serial agar dilution method, Enterococcus faecalis 03A1069; type: cell-based
Experimental: (§1) Other strains which have similar characteristics of resistance to drugs may be also used. Such strains are usually available for those skilled in the art.
(§2) MIC: minimum inhibitory concentration; for more detail see below.
(§3) Each strain of S. aureus 01A1105, E faecalis 03A1069 and E. coli 51A0266 is inoculated and grown in tube containing 10 ml of Trypticase Soy Broth (TSB, DIFCO), overnight at 37° C. shaking at 200 rpm. The cell-concentration of the culture is adjusted by dilution with TSB and 50% aqueous glycerol to an optical density of 1.4 at 600 nm (light path=1 cm) and a final glycerol concentration of 20%. The diluted culture is dispensed to cryotubes, 1 ml per vial, and stored at -80° C. until its use.
(§4) Each stock culture, 200 μl for S. aureus and E. coli and 1 ml for E. faecalis, is added to 100 ml of Mueller Hinton medium (DIFCO), mixed and poured into an assay plate. The stock culture (1 ml) of S. pyogenes is inoculated into a tube containing 20 ml TSB and 1.0 ml defibrinated horse blood (Nippon Bio-Supply Center), and incubated statically at 37° C. for 24 hours. The incubated culture (5 ml) and 5 ml of sheep blood (Nippon Bio-Supply Center) were added to Mueller Hinton medium (100 ml), mixed and poured into an assay plate.
(§5) For determination of minimum inhibitory concentration (MIC), serial agar dilution method is used with same incubation condition as described above. The growth of bacteria is monitored by measuring the optical density at 655 nm.
(§6) The compound prepared in Example 1(2R*,3R*-2,3-dihydro-2-[(E)-2-buten-2-yl]-4-hydroxy-3-methyl-5-phenylfuro[2,3-b]pyridine-3-carbaldehyde ) was tested according to the assay method described in pages 12 to 14.

S. aureus 01A1105 = assay: MIC by serial agar dilution method, S. aureus 01A1105; type: cell-based, Staphylococcus aureus
Experimental: as §1, §2, §3, §4, §5, §6

S. pyogenes 02C1068 = assay: MIC by serial agar dilution method, S. pyogenes 02C1068; type: cell-based; conditions: for MIC: Streptococcus pyogenes
Experimental: as §1, §2
The strain of S. pyogenes 02C1068 was inoculated and grown in tubes, containing 10 ml of TSB with 0.5 ml of lysed horse blood (Nippon Bio-Supply Center), statically for 24 hours at 37° C. After the incubation, the cells were centrifuged and resuspended in a mixture of 50% aqueous glycerol (4 ml) and defibrinated sheep blood (6 ml, Nippon Bio-Supply Center). The resulting cell-suspension was dispensed to cryotubes, 1 ml per vial, and stored at -80° C. until its use.
as §4, §5, §6

Escherichia coli 51A0266 = assay: MIC by serial agar dilution method, Escherichia coli 51A0266; type: cell-based
Experimental: as §1, §2, §3
as §4, with “The incubated culture (5 ml) and 5 ml of sheep blood (Nippon Bio-Supply Center) were added to Mueller Hinton medium (100 ml), mixed and poured into an assay plate.” left out
For determination of minimum inhibitory concentration (MIC), serial agar dilution method is used with same incubation condition as described above. The growth of bacteria is monitored by measuring the optical density at 655 nm. […]

E. coli 51A1075 = assay: MIC by serial agar dilution method, E. coli 51A1075; type: cell-based, Escherichia coli
Experimental: as §2, §5, §6

[2] = tested on: Haemophilus influenzae 54A0085; assay: MIC by serial agar dilution method, Haemophilus influenzae 54A0085; type: cell-based
Experimental: as §2, §5, §6

H. influenzae 54A0131 = assay: MIC by serial agar dilution method, H. influenzae 54A0131; type: cell-based, Haemophilus influenzae
Experimental: as §2, §5, §6

[3] = tested on: Streptococcus agalactiae 02B1023; assay: MIC by serial agar dilution method, Streptococcus agalactiae 02B1023; type: cell-based
Experimental: as §2, §5, §6

[4] = tested on: Moraxella catarrhalis 87A1055; assay: MIC by serial agar dilution method, Moraxella catarrhalis 87A1055; type: cell-based
Experimental: as §2, §5, §6

E. coli 51A1073 = assay: MIC by serial agar dilution method, E. coli 51A1073; type: cell-based, Escherichia coli
Experimental: as §2, §5, §6

E. coli 51A1051 = assay: MIC by serial agar dilution method, E. coli 51A1051; type: cell-based, Escherichia coli
Experimental: as §2, §5, §6

S. pyogenes 02C1079 = assay: MIC by serial agar dilution method, S. pyogenes 02C1079; type: cell-based
Experimental: as §2, §5, §6

S. pneumoniae 02J1095 = assay: MIC by serial agar dilution method, S. pneumoniae 02J1095; type: cell-based, Streptococcus pneumoniae
Experimental: as §2, §5, §6

various bacteria = assay: Antibacterial assay, overall result in words; type: cell-based
Experimental: Sample solution is loaded and dried on a paper disk (i.d. 6 mm, thin, Advantec) which is placed on the assay plate and incubated overnight at 37° C. The activity is determined by measuring the size of growth-inhibition zone around the disk. As controls, vancomycin 1 μg and tetracycline 1 μg disks are used.
as §5, §6

S. pneumoniae 02J1046 = assay: MIC by serial agar dilution method, S. pneumoniae 02J1046; type: cell-based, Streptococcus pneumoniae
Experimental: as §2, §5, §6

[5] = tested on: Staphylococcus aureus 01A1095; assay: MIC by serial agar dilution method, Staphylococcus aureus 01A1095; type: cell-based
Experimental: as §2, §5, §6

S. hemolyticus 01E1006 = assay: MIC by serial agar dilution method, S. hemolyticus 01E1006; type: cell-based
Experimental: as §2, §5, §6

E. coli 51A1074 = assay: MIC by serial agar dilution method, E. coli 51A1074; type: cell-based, Escherichia coli
Experimental: as §2, §5, §6

S. aureus 01A1120 = assay: MIC by serial agar dilution method, S. aureus 01A1120; type: cell-based, Staphylococcus aureus
Experimental: as §2, §5, §6

[6] = Enterococcus faecalis, 03A1069, read-out: MIC (minimum inhibitory concentration)
[7] = Staphylococcus aureus, 01A1105, read-out: MIC (minimum inhibitory concentration)
[8] = Staphylococcus aureus 01A1105, antibiotic resistance of strain, read-out: MIC (minimum inhibitory concentration)
[9] = Storeptococcus pyogenes 02C1068, antibiotic resistance of strain, read-out: MIC (minimum inhibitory concentration)

Compound: O=C(N[C@H](CO)[C@H](O)c1ccc([N+](=O)[O-])cc1)C(Cl)Cl [chloramphenicol]
- MIC [1, 6]: 16 µg/mL (≈ 49.5 µM)

Compound: CC1(C)S[C@@H]2[C@H](NC(=O)Cc3ccccc3)C(=O)N2[C@H]1C(=O)O [penicillin G]
- MIC (S. aureus 01A1105; [7]): 64 µg/mL (≈ 191 µM)
- MIC [1, 6]: 6 µg/mL (≈ 17.9 µM)

- MIC (S. aureus 01A1105; [8]): > 256 µg/mL
Compound: COc1cccc(OC)c1C(=O)N[C@@H]1C(=O)N2[C@@H]1SC(C)(C)[C@@H]2C(=O)O [methicillin]

- MIC (S. aureus 01A1105; [8]): > 256 µg/mL
Compound: CO/N=C(\C(=O)N[C@@H]1C(=O)N2C(C(=O)O)=C(COC(C)=O)CS[C@H]12)c1csc(N)n1 [cefataxime]

Compound: gentamicin
- MIC (minimum inhibitory concentration) (S. aureus 01A1105; Staphylococcus aureus 01A1105, antibiotic resistance of strain): 64 µg/mL

Compound: CC[C@H]1OC(=O)[C@H](C)[C@@H](O[C@H]2C[C@@](C)(OC)[C@@H](O)[C@H](C)O2)[C@H](C)[C@@H](O[C@@H]2O[C@H](C)C[C@H](N(C)C)[C@H]2O)[C@](C)(O)C[C@@H](C)C(=O)[C@H](C)[C@@H](O)[C@]1(C)O [erythromycin]
- MIC (S. pyogenes 02C1068; 02C1068, read-out: MIC (minimum inhibitory concentration)): > 64 µg/mL
- MIC (S. aureus 01A1105; [7]): > 256 µg/mL

Compound: CN[C@H](CC(C)C)C(=O)N[C@H]1C(=O)N[C@@H](CC(N)=O)C(=O)N[C@H]2C(=O)N[C@H]3C(=O)N[C@H](C(=O)N[C@H](C(=O)O)c4cc(O)cc(O)c4-c4cc3ccc4O)[C@H](O)c3ccc(c(Cl)c3)Oc3cc2cc(c3O[C@@H]2O[C@H](CO)[C@@H](O)[C@H](O)[C@H]2O[C@H]2C[C@](C)(N)[C@H](O)[C@H](C)O2)Oc2ccc(cc2Cl)[C@H]1O [vancomycin, reference compound]
- MIC [1, 6]: 24 µg/mL (≈ 16.6 µM)
- MIC (Escherichia coli 51A0266; Escherichia coli, 51A0266, read-out: MIC (minimum inhibitory concentration)): > 128 µg/mL

Compound: O=C(O)c1cn(C2CC2)c2cc(N3CCNCC3)c(F)cc2c1=O [ciprofloxacin]
- MIC (S. aureus 01A1105; [7]): > 32 µg/mL

Compound: CN(C)C1C(=O)C(C(N)=O)=C(O)C2(O)C(=O)C3=C(O)c4c(O)cccc4C(C)(O)C3CC12 (stereo not drawn) [tetracycline]
- MIC (S. aureus 01A1105; [7]): 128 µg/mL (≈ 288 µM)

Compound: C/C=C(\C)[C@H]1Oc2ncc(-c3ccccc3)c(O)c2[C@@]1(C)C=O (relative stereo) [Example 1, 2R*,3R*-2,3-dihydro-2-[(E)-2-buten-2-yl]-4-hydroxy-3-methyl-5-phenylfuro[2,3-b]pyridine-3-carbaldehyde]
- minimum inhibitory concentration (MIC) (E. coli 51A1075): 100
- minimum inhibitory concentration (MIC) (S. pyogenes 02C1068; S. pyogenes 02C1068, multidrug resistant): 6.25
- minimum inhibitory concentration (MIC) [2]: 50
- minimum inhibitory concentration (MIC) (S. aureus 01A1105; S. aureus 01A1105, multidrug resistant): 25
- minimum inhibitory concentration (MIC) ([1]; Enterococcus faecalis 03A1069, multidrug resistant): 100
- minimum inhibitory concentration (MIC) (H. influenzae 54A0131): 100
- minimum inhibitory concentration (MIC) [3]: 25
- minimum inhibitory concentration (MIC) [4]: 50
- minimum inhibitory concentration (MIC) (E. coli 51A1073): > 100
- minimum inhibitory concentration (MIC) (E. coli 51A1051): > 100
- minimum inhibitory concentration (MIC) (Escherichia coli 51A0266; Escherichia coli 51A0266): > 100
- minimum inhibitory concentration (MIC) (S. pyogenes 02C1079): 12.5
- minimum inhibitory concentration (MIC) (S. pneumoniae 02J1095): 6.25
- antibacterial activity against various bacteria (various bacteria): remarkable antibacterial activity against various bacteria
- minimum inhibitory concentration (MIC) (S. pneumoniae 02J1046): 25
- minimum inhibitory concentration (MIC) [5]: 100
- minimum inhibitory concentration (MIC) (S. hemolyticus 01E1006): 100
- minimum inhibitory concentration (MIC) (E. coli 51A1074): > 100
- minimum inhibitory concentration (MIC) (S. aureus 01A1120): 25

- MIC (S. pyogenes 02C1068; [9]): > 64 µg/mL
- MIC (S. aureus 01A1105; [8]): > 256 µg/mL
Compound: CCC[C@@H]1C[C@@H](C(=O)N[C@@H]([C@H]2O[C@H](SC)[C@H](O)[C@@H](O)[C@H]2O)[C@H](C)Cl)N(C)C1 [clindamycin]

- MIC (S. pyogenes 02C1068; [9]): > 16 µg/mL
- MIC ([1]; Enterococcus faecalis 03A1069, antibiotic resistance of strain, read-out: MIC (minimum inhibitory concentration)): > 256 µg/mL
Compound: CC[C@H]1OC(=O)[C@H](C)[C@@H](O[C@H]2C[C@@](C)(OC)[C@@H](O)[C@H](C)O2)[C@H](C)[C@@H](O[C@@H]2O[C@H](C)C[C@H](N(C)C)[C@H]2O)[C@](C)(O)C[C@@H](C)CN(C)[C@H](C)[C@@H](O)[C@]1(C)O [azithromycin]

Compound: CC(=O)OCC1=C(C(=O)O)N2C(=O)[C@@H](NC(=O)Cc3cccs3)[C@H]2SC1 [cephalothin]
- MIC [1, 6]: 128 µg/mL (≈ 323 µM)
